From patent US7622106B1, “Necrosis assay” (Board of Regents, The University of Texas System, priority 2009, dated 2009)
Blank lines part the entries; values can stand above or below the molecule they belong to.

What was measured:
HT-29 cells = experiment: Smac mimetic plus pan-caspase inhibitor induced necrosis in HT-29 cells; assay type: cell-based, human; conditions: for cell death of HT-29 cells: Smac mimetic plus z-VAD or Q-VD-OPH co-treatment
Protocol: To verify that cell death seen in HT-29 cells was indeed necrosis, cells treated with either vehicle DMSO, or Smac mimetic plus z-VAD, were analyzed by electron microscopy (EM). […] No obvious apoptotic morphological changes were observed.
Since Smac mimetic induces apoptosis in certain tumor lines as a result of autocrine TNF-α (Petersen et al., 2007; Vince et al., 2007; Varfolomeev et al., 2007), we checked whether autocrine TNF-α is required for the observed necrosis in HT-29 cells. […] Moreover, exogenously added TNF-α augmented Smac mimetic plus z-VAD induced cell death and it did so in a dose dependent manner.

RIP3/RIPK1 = RIP3/RIPK1 (Homo sapiens, UniProt Q13546); experiment: RIP3 up-shift and RIPK1 co-immunoprecipitation in HT-29 cells under necrosis induction; assay type: cell-based; conditions: co-treatment during necrosis induction (TNF-α, Smac mimetic, z-VAD)
Sequence of RIP3/RIPK1 (Q13546 whole entry): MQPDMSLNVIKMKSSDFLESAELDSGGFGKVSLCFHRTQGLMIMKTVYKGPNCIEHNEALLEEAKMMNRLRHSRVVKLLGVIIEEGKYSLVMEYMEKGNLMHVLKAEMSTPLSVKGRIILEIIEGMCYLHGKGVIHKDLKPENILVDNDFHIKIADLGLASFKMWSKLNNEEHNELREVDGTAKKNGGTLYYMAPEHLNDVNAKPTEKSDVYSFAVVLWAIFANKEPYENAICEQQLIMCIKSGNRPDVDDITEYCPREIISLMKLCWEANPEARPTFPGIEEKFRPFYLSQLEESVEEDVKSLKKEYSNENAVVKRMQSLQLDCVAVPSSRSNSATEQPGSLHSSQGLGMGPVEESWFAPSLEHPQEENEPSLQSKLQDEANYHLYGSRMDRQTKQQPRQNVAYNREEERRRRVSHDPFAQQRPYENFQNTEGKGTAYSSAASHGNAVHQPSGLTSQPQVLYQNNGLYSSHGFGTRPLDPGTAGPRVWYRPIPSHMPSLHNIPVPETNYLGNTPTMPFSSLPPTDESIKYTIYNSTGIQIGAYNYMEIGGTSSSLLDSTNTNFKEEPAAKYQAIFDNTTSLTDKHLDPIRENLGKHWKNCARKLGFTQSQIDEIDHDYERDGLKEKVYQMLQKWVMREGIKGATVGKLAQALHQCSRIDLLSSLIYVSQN
Protocol: To test whether endogenous RIP3 indeed interacts with RIPK1 upon necrosis induction, we treated HT-29 cells with TNF-α, Smac mimetic and z-VAD, followed by immuno-precipitation using an anti-RIPK1 antibody at different time points. […] Correlating with the shift, RIP3 was found in the RIPK1 immuno-complex starting at 4 hours of necrosis induction and peaked at 8 hours. The up-shift of RIP3 and its interaction with RIPK1 only occurred under necrosis-inducing conditions. The observed up-shift of RIP3 is most likely due to phosphorylation that depends on its own kinase activity. […] Moreover, the RIP3 band can be shifted down to the original position on SDS-PAGE gel with phosphatase treatment.
To further confirm the relevance of RIP3 up-shift and its induced interaction with RIPK1 to necrosis, HT-29 cells were co-treated with Necrostatin-1 during necrosis induction.

[1] = molecular target: RIPK1/FADD/caspase-8 complex (Homo sapiens, UniProt Q13546); experiment: Caspase-8 immunoprecipitation of RIPK1/FADD/caspase-8/RIP3 complex in HT-29 cells; assay type: cell-based; conditions: co-treatment, anti-caspase-8 immunoprecipitation
Sequence of RIPK1/FADD/caspase-8 complex (Q13546 whole entry, one chain of several): as the sequence (Q13546 whole entry) above
Protocol: Since RIPK1 forms a complex with caspase-8/FADD upon treatment with TNF-α plus Smac mimetic and the complex is stabilized with z-VAD (Petersen et al., 2007; Wang et al., 2008), we wondered whether it is the same complex that recruits RIP3. To check that directly, we immuno-precipitated caspase-8 and analyzed the composition of the immuno-complex by Western blotting. […] RIP3 continued to be recruited to the complex for up to 6 hours of treatment. Much less proteins were immuno-precipitated at 8 hours with this anti-caspase-8 antibody. This observation might reflect that a large percentage of cells were dying. […] This is consistent with the notion that Necrostatin-1 inhibits RIPK1 kinase activity, which is required for the formation of RIPK1/FADD/caspase-8 complex (Degterev et al., 2008; Wang et al., 2008).

T98G cells = experiment: Necrosis induction in T98G cells ectopically expressing RIP3; assay type: cell-based, human; conditions: T98G cells expressing wild type RIP3, necrosis induction
Source text: Since cells resistant to TNF-α induced necrotic death are also defective in RIP3 expression, we then tested whether ectopic expression of RIP3 converts these cells to sensitive ones. When wild type RIP3 was expressed in T98G cells, we saw marked cell death in these cells upon necrosis induction compared to vector transfection controls. […] Moreover, T98G cell death resulted from RIP3 expression was blocked by the necrosis inhibitor, Necrostatin-1. Similar effects were observed when RIP3 was expressed in HeLa cells, MCF-7 cells, and H2009 cells.

L929 cells = experiment: Necrotic cell death in L929 cells; assay type: cell-based, mouse
Source text: TNF-α induced necrosis has been most extensively studied in mouse fibrosarcoma L929 cells due to its unique ability to undergo necrosis in response to TNF-α, or z-VAD alone (Grooten et al., 1993; Vercammen et al., 1998; Degterev et al., 2005; Kim et al., 2007). To test whether RIP3 is required for necrosis this L929 cells, we knocked down RIP3 with three individual mouse siRNA oligoes. Cell death induced by z-VAD, or TNF-α alone or combination of the two was attenuated when RIP3 was knocked down in L929 cells. The efficacy of necrosis blockage of these oligoes correlated perfectly with the efficiency of RIP3 knockdown.

cIAP2 = molecular target: T1, cIAP2 (Homo sapiens, UniProt Q13489); experiment: cIAP2 degradation upon Smac mimetic treatment in HT-29 cells; assay type: cell-based
T1 construct: endogenous in cells; host or cells: HT-29
T1 sequence (Q13489 whole entry): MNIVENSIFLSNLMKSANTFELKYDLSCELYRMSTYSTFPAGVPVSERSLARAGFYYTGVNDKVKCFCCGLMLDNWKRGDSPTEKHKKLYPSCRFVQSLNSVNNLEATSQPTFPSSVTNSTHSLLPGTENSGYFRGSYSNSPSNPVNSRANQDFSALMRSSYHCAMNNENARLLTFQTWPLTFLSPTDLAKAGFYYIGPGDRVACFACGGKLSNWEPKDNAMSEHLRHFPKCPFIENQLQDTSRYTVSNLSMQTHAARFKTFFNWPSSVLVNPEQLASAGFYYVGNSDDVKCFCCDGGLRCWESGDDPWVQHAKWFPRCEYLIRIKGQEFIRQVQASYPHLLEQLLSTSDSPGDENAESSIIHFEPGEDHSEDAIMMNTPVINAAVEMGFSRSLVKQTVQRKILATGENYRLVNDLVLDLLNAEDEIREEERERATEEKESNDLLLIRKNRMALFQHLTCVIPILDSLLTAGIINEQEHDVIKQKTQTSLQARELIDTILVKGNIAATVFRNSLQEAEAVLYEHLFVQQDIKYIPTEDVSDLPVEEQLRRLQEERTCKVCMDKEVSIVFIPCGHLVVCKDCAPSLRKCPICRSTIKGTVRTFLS

certain tumor cell lines = conditions: cited from earlier work

Molecule: CN1C(=O)C(Cc2c[nH]c3ccccc23)NC1=S (stereo not drawn) [Necrostatin-1]
- effect on Smac mimetic plus z-VAD induced cell death (HT-29 cells; HT-29 cells, agent added to culture): cell death was prevented
- RIP3 interaction with RIPK1 (RIP3/RIPK1): completely prevented
- RIP3 up-shift (RIP3/RIPK1): completely prevented
- formation of RIPK1/FADD/caspase-8 (RIP3) complexes [1]: none of these complexes were able to form efficiently
- effect on T98G cell death resulting from RIP3 expression (T98G cells): blocked

- cIAP2 degradation (cIAP2): accelerated degradation
Molecule: CN[C@@H](C)C(=O)N[C@H](C(=O)N1CCC[C@H]1Cn1nnnc1Sc1ccccc1)C(C)OCC#CC#CCO[C@H](C)[C@H](NC(=O)[C@H](C)NC)C(=O)N1CCCC1Cn1nnnc1Sc1ccccc1 (stereo partly drawn) [Smac mimetic]
- cell death of HT-29 cells (HT-29 cells): exacerbated cell death
- cell death in L929 cells (L929 cells): accelerated cell death

Molecule: Q-VD-OPH
- cell death of HT-29 cells (HT-29 cells): exacerbated cell death

Molecule: TNF-α
- effect of exogenously added TNF-α on Smac mimetic plus z-VAD induced cell death (HT-29 cells; HT-29 cells): augmented

Molecule: z-VAD
- cell death of HT-29 cells (HT-29 cells): exacerbated cell death
- effect on Smac mimetic induced apoptotic death (certain tumor cell lines): completely blocked
